Reference: the kinase profiling compilation of Christmann-Franck et al. (2016)

Columns and labels:
Assay in all cases: KINOMEscan competition binding
Conditions in all cases: compound 10.0 µM
[1] = biological target: WEE1 (human) (UniProt P30291)
[2] = biological target: PHKG1 (human) (UniProt Q16816)
[3] = biological target: MAPK4 (human) (UniProt P31152)
[4] = biological target: DAPK2 (human) (UniProt Q9UIK4)
[5] = biological target: CSNK1A1L (human) (UniProt Q8N752)
[6] = biological target: MAP2K1 (human) (UniProt Q02750)
[7] = biological target: PRKACB (human) (UniProt P22694)
[8] = biological target: MAP3K3 (human) (UniProt Q99759)
[9] = biological target: FLT3 (human) (UniProt P36888)
[10] = biological target: ROS1 (human) (UniProt P08922)
[11] = biological target: STK32B (human) (UniProt Q9NY57)
[12] = biological target: FER (human) (UniProt P16591)
[13] = biological target: EPHA3 (human) (UniProt P29320)
[14] = biological target: CLK4 (human) (UniProt Q9HAZ1)
[15] = biological target: ALK (human) (UniProt Q9UM73)
[16] = biological target: ACVR2B (human) (UniProt Q13705)
Chain of ACVR2B (human) (Q13705 whole entry, looked up): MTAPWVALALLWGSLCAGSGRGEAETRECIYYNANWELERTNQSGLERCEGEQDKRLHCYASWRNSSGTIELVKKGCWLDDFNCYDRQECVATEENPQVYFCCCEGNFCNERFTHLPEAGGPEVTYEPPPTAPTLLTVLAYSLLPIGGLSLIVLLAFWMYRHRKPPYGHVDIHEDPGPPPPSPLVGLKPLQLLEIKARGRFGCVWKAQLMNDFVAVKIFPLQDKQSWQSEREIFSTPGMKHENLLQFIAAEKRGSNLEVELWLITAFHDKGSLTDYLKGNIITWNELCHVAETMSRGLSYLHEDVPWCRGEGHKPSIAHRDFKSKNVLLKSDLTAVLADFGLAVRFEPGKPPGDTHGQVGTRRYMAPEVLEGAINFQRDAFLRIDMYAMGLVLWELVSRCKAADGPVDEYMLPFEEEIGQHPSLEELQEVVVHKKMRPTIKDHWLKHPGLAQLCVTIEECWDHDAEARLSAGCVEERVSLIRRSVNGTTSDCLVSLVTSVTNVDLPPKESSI

[17] = biological target: PRKG2 (human) (UniProt Q13237)
[18] = biological target: DCLK3 (human) (UniProt Q9C098)
[19] = biological target: PKN1 (human) (UniProt Q16512)
Chain of PKN1 (human) (Q16512 whole entry, looked up): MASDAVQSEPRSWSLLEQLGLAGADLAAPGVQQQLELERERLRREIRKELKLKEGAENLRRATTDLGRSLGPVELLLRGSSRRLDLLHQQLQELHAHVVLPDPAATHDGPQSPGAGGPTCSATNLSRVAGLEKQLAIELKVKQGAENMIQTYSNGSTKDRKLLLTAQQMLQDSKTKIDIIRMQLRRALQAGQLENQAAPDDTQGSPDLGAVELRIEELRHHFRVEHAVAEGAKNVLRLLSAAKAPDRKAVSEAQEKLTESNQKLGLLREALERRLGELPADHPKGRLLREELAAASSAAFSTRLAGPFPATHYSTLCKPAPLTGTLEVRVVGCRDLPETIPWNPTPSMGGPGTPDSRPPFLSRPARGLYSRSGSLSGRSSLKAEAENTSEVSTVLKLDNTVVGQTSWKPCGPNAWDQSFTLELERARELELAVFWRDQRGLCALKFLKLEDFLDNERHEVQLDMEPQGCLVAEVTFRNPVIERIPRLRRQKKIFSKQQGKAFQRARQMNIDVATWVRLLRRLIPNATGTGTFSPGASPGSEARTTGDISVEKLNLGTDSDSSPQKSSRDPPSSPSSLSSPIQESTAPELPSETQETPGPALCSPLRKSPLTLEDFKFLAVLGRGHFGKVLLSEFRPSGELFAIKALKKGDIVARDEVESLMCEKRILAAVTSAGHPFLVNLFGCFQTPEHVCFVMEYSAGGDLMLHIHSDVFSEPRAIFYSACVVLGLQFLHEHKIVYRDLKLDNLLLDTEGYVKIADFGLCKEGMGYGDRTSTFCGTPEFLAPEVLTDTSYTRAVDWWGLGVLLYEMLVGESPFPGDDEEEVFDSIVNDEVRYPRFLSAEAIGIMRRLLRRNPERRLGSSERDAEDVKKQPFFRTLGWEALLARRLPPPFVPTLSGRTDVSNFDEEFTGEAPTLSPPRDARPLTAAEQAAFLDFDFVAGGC

[20] = biological target: NUAK1 (human) (UniProt O60285)
Chain of NUAK1 (human) (O60285 whole entry, looked up): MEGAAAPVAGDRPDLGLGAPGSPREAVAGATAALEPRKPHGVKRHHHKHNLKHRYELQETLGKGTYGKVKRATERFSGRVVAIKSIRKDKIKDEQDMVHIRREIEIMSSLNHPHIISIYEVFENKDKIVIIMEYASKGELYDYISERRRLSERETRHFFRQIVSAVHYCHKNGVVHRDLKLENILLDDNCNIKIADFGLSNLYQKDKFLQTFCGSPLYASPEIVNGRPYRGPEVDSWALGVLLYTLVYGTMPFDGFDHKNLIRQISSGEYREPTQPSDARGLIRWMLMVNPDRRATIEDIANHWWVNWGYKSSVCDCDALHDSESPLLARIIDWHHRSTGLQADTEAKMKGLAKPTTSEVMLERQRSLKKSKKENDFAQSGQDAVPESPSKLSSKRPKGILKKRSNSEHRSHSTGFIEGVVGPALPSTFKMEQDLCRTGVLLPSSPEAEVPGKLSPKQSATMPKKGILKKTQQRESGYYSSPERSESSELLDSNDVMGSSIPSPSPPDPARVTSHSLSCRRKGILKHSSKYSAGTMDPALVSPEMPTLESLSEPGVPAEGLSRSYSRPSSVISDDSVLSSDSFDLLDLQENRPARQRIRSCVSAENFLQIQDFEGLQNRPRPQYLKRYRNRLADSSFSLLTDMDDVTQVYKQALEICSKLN

[21] = biological target: TEK (human) (UniProt Q02763)
[22] = biological target: CLK2 (human) (UniProt P49760)
[23] = biological target: MAPK15 (human) (UniProt Q8TD08)
Chain of MAPK15 (human) (Q8TD08 whole entry, looked up): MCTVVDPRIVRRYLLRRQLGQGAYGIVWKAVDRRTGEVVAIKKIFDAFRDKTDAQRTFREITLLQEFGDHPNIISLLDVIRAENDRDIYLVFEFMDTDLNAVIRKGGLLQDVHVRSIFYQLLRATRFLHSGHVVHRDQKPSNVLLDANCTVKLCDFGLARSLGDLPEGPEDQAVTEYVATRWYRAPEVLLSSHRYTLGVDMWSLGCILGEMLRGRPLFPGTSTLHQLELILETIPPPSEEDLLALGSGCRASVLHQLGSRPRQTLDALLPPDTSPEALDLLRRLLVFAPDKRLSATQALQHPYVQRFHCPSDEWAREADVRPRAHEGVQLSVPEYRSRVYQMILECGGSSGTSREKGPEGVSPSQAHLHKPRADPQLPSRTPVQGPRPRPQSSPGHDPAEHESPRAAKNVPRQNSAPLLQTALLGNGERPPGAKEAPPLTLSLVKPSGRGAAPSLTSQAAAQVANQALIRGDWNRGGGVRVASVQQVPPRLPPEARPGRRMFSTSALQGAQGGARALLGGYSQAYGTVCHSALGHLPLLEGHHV

[24] = biological target: MAP3K4 (human) (UniProt Q9Y6R4)
[25] = biological target: PRKAA2 (human) (UniProt P54646)
[26] = biological target: TLK1 (human) (UniProt Q9UKI8)
[27] = biological target: CDKL2 (human) (UniProt Q92772)
[28] = biological target: MAPK13 (human) (UniProt O15264)
[29] = biological target: IKBKE (human) (UniProt Q14164)
[30] = biological target: TNK1 (human) (UniProt Q13470)
Chain of TNK1 (human) (Q13470 whole entry, looked up): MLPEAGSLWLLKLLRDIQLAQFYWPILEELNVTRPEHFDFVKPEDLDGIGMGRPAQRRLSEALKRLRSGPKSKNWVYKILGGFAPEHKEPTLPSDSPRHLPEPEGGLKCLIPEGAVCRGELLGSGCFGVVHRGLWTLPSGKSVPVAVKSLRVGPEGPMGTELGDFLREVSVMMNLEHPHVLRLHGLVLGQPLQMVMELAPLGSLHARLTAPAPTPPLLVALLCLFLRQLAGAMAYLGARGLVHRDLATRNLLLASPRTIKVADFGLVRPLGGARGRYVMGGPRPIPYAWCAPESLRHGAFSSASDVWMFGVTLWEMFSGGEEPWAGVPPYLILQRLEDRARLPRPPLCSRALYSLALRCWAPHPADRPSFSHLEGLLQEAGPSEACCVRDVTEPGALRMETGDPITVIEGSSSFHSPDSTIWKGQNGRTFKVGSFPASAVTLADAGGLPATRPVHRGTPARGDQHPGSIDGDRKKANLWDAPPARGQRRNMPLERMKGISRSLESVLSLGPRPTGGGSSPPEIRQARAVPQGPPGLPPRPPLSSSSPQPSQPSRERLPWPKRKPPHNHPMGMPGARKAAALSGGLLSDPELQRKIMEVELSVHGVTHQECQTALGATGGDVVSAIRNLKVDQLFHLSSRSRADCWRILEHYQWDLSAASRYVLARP

[31] = biological target: PRKG1 (human) (UniProt Q13976)
[32] = biological target: EPHA2 (human) (UniProt P29317)
[33] = biological target: RPS6KA6 KD1 (human) (UniProt Q9UK32)
[34] = biological target: INSRR (human) (UniProt P14616)
[35] = biological target: STK38L (human) (UniProt Q9Y2H1)
Chain of STK38L (human) (Q9Y2H1 whole entry, looked up): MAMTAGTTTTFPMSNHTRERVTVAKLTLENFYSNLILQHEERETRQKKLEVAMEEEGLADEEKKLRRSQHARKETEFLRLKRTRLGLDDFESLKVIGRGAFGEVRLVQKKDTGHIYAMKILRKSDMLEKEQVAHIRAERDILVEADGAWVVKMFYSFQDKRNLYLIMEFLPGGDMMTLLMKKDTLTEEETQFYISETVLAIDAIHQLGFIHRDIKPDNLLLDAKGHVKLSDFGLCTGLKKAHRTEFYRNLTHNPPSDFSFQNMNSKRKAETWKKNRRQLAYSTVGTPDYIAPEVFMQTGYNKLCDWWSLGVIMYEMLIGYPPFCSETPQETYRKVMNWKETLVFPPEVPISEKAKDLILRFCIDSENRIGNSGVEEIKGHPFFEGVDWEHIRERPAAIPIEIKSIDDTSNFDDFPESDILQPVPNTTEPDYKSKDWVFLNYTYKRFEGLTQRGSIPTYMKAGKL

Chain of MAPK4 (human) (P31152 whole entry, looked up): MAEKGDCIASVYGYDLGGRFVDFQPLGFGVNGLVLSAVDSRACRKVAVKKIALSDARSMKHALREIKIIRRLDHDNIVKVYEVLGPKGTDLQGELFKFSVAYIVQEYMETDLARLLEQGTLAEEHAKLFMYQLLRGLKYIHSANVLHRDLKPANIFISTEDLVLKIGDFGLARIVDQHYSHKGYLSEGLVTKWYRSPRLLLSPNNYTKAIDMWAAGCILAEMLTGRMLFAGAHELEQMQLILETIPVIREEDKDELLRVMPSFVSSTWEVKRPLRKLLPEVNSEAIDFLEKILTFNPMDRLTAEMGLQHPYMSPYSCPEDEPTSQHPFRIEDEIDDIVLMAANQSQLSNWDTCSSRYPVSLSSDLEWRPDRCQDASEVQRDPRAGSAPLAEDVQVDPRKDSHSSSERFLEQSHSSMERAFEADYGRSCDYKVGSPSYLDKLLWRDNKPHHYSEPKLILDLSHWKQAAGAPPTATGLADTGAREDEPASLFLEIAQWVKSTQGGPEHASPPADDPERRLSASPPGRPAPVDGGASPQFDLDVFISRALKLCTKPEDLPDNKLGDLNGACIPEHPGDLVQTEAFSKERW
Chain of CSNK1A1L (human) (Q8N752 whole entry, looked up): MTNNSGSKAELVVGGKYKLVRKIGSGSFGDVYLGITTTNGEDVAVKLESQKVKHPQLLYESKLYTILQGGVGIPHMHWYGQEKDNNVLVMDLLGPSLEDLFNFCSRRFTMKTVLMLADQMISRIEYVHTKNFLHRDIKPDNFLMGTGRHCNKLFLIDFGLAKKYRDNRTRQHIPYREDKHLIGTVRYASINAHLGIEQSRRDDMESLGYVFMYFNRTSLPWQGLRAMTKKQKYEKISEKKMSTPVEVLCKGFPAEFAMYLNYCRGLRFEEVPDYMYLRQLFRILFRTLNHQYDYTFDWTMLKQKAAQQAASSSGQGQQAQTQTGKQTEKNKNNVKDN

SMILES	kinase still bound, per cent of control [1]	kinase still bound, per cent of control [2]	kinase still bound, per cent of control [3]	kinase still bound, per cent of control [4]	kinase still bound, per cent of control [5]	kinase still bound, per cent of control [6]	kinase still bound, per cent of control [7]	kinase still bound, per cent of control [9]	kinase still bound, per cent of control [10]	kinase still bound, per cent of control [11]	kinase still bound, per cent of control [12]	kinase still bound, per cent of control [13]	kinase still bound, per cent of control [14]	kinase still bound, per cent of control [15]	kinase still bound, per cent of control [16]	kinase still bound, per cent of control [17]	kinase still bound, per cent of control [18]	kinase still bound, per cent of control [19]	kinase still bound, per cent of control [20]	kinase still bound, per cent of control [21]	further results
COc1cc(N2CCC(C(N)=O)CC2)ccc1Nc1nc(N)c(Cl)c(Nc2ccccc2S(=O)(=O)C(C)C)n1	100%	12%	100%	100%	21%	100%	100%	100%	3.2%	3.7%	0.6%	100%	5.5%	4.5%	100%	100%	100%	100%	100%	100%	kinase still bound, per cent of control [8]: 100%; kinase still bound, per cent of control [22]: 4.6%; kinase still bound, per cent of control [23]: 100%; kinase still bound, per cent of control [24]: 100%; kinase still bound, per cent of control [25]: 100%; kinase still bound, per cent of control [26]: 100%; kinase still bound, per cent of control [27]: 100%; kinase still bound, per cent of control [28]: 100%; kinase still bound, per cent of control [29]: 100%; kinase still bound, per cent of control [30]: 3.8%; kinase still bound, per cent of control [31]: 100%; kinase still bound, per cent of control [32]: 100%; kinase still bound, per cent of control [33]: 100%; kinase still bound, per cent of control [34]: 1.2%; kinase still bound, per cent of control [35]: 100%
COc1ccc(N(C(=O)Oc2cc(C(=O)Nc3cccc(C(F)(F)F)c3)ccc2C)c2ccnc(Nc3ccc(N4CCN(C)CC4)cc3)n2)c(OC)c1	100%	100%	100%	100%	100%	100%	27%	100%	1.9%	100%	4.4%	0.1%	100%	10%	100%	100%	100%	100%	100%	0.05%	kinase still bound, per cent of control [22]: 100%; kinase still bound, per cent of control [23]: 100%; kinase still bound, per cent of control [24]: 100%; kinase still bound, per cent of control [25]: 3.3%; kinase still bound, per cent of control [26]: 100%; kinase still bound, per cent of control [29]: 100%; kinase still bound, per cent of control [30]: 1.6%; kinase still bound, per cent of control [31]: 100%; kinase still bound, per cent of control [32]: 4.2%; kinase still bound, per cent of control [33]: 100%; kinase still bound, per cent of control [34]: 100%; kinase still bound, per cent of control [35]: 100%
COc1cc(C)c(Sc2cnc(NC(=O)c3ccc(CNC(C)C(C)C)cc3)s2)cc1C(=O)N1CCN(C(C)=O)CC1 (configuration not stated)	100%	100%	100%	28%	100%	100%	100%	100%	100%	100%	15%	25%	33%	4.6%	100%	100%	4.2%	100%	100%	29%	kinase still bound, per cent of control [8]: 100%; kinase still bound, per cent of control [22]: 3.7%; kinase still bound, per cent of control [23]: 100%; kinase still bound, per cent of control [24]: 12%; kinase still bound, per cent of control [25]: 100%; kinase still bound, per cent of control [26]: 100%; kinase still bound, per cent of control [27]: 100%; kinase still bound, per cent of control [28]: 100%; kinase still bound, per cent of control [29]: 100%; kinase still bound, per cent of control [30]: 100%; kinase still bound, per cent of control [31]: 100%; kinase still bound, per cent of control [32]: 25%; kinase still bound, per cent of control [33]: 100%; kinase still bound, per cent of control [34]: 0.35%; kinase still bound, per cent of control [35]: 7%
